Data published in patent publication US11951108B2, “Combination therapy for treating cancer” (Epizyme, Inc., priority 2016, dated 2024).

Key:
SUM52PE = assay: In vitro combination study, breast cancer cell line SUM52PE; conditions: ER/PR −/−, HER2 −, 7 day pre-treatment + 6 day co-treatment
MDA-MB-231 = assay: In vitro combination study, breast cancer cell line MDA-MB-231; conditions: ER/PR −/−, HER2 −, 7 day pre-treatment + 6 day co-treatment
COV644* = assay: In vitro combination study, ovarian cancer cell line COV644; conditions: COV644*; 7+3 model
ES-2 = assay: In vitro combination study, ovarian cancer cell line ES-2; conditions: 4+3 model
HCC1187 = assay: In vitro combination study, breast cancer cell line HCC1187; conditions: ER/PR −/−, HER2 −, 7 day pre-treatment + 6 day co-treatment

| Structure (SMILES) | Synergy or antagonism of second agent with tazemetostat (IC50 shift of second agent) (DU4475) | Synergy or antagonism of second agent with tazemetostat (IC50 shift of second agent) (SUM52PE) | Synergy or antagonism of second agent with tazemetostat (IC50 shift of second agent) (COV644*) | Synergy or antagonism of second agent with tazemetostat (IC50 shift of second agent) (SKOV3) | Synergy or antagonism of second agent with tazemetostat (IC50 shift of second agent) (ES-2) | Synergy or antagonism of second agent with tazemetostat (IC50 shift of second agent) (RMUGS*) | other results |
| --- | --- | --- | --- | --- | --- | --- | --- |
| Nc1ncn([C@@H]2O[C@H](CO)[C@@H](O)[C@H]2O)c(=O)n1 [Azacitidine] | C (key: B: Synergy > 4× IC50 shift; Synergy > 2× IC50 shift; No Effect; Antagonism; X: Not Tested) | C (Synergy > 2× IC50 shift) | – | – | – | – | Synergy or antagonism of second agent with tazemetostat (IC50 shift of second agent) (MDA-MB-468): C (key: B: Synergy > 4× IC50 shift; Synergy > 2× IC50 shift; No Effect; Antagonism; X: Not Tested); Synergy or antagonism of second agent with tazemetostat (IC50 shift of second agent) (HCC38): C (key: B: Synergy > 4× IC50 shift; Synergy > 2× IC50 shift; No Effect; Antagonism; X: Not Tested); Synergy or antagonism of second agent with tazemetostat (IC50 shift of second agent) (OV-90): C (key: B: Synergy > 4× IC50 shift; Synergy > 2× IC50 shift; No Effect; Antagonism; X: Not Tested) |
| Cc1nc(Nc2ncc(C(=O)Nc3c(C)cccc3Cl)s2)cc(N2CCN(CCO)CC2)n1 [Dasatinib] | – | B (Synergy > 4× IC50 shift) | – | – | – | – | Synergy or antagonism of second agent with tazemetostat (IC50 shift of second agent) (MDA-MB-231): C (Synergy > 2× IC50 shift); Synergy or antagonism of second agent with tazemetostat (IC50 shift of second agent) (HCC1569): C (key: B: Synergy > 4× IC50 shift; Synergy > 2× IC50 shift; No Effect; Antagonism; X: Not Tested) |
| COc1cccc2c1C(=O)c1c(O)c3c(c(O)c1C2=O)C[C@@](O)(C(=O)CO)C[C@@H]3O[C@H]1C[C@H](N)[C@H](O)[C@H](C)O1 [Doxorubicin] | – | – | C (Synergy > 2× IC50 shift) | B (key: B: Synergy > 4× IC50 shift; Synergy > 2× IC50 shift; No Effect; Antagonism; X: Not Tested) | C (Synergy > 2× IC50 shift) | B (key: B: Synergy > 4× IC50 shift; Synergy > 2× IC50 shift; No Effect; Antagonism; X: Not Tested) | Synergy or antagonism of second agent with tazemetostat (IC50 shift of second agent) (OVMANA): C (key: B: Synergy > 4× IC50 shift; Synergy > 2× IC50 shift; No Effect; Antagonism; X: Not Tested) |
| COc1cc([C@@H]2c3cc4c(cc3[C@@H](O[C@@H]3O[C@@H]5CO[C@@H](C)O[C@H]5[C@H](O)[C@H]3O)[C@H]3COC(=O)[C@H]23)OCO4)cc(OC)c1O [Etoposide] | – | – | – | – | – | – | Synergy or antagonism of second agent with tazemetostat (IC50 shift of second agent) (HCC1143): C (key: B: Synergy > 4× IC50 shift; Synergy > 2× IC50 shift; No Effect; Antagonism; X: Not Tested); Synergy or antagonism of second agent with tazemetostat (IC50 shift of second agent) (SUM159PT): C (key: B: Synergy > 4× IC50 shift; Synergy > 2× IC50 shift; No Effect; Antagonism; X: Not Tested) |
| CC(=O)O[C@H]1C(=O)[C@@]2(C)[C@H]([C@H](OC(=O)c3ccccc3)[C@]3(O)C[C@H](OC(=O)[C@H](O)[C@@H](NC(=O)c4ccccc4)c4ccccc4)C(C)=C1C3(C)C)[C@]1(OC(C)=O)CO[C@@H]1C[C@@H]2O [Paclitaxel] | B (key: B: Synergy > 4× IC50 shift; Synergy > 2× IC50 shift; No Effect; Antagonism; X: Not Tested) | – | C (Synergy > 2× IC50 shift) | C (key: B: Synergy > 4× IC50 shift; Synergy > 2× IC50 shift; No Effect; Antagonism; X: Not Tested) | C (Synergy > 2× IC50 shift) | C (key: B: Synergy > 4× IC50 shift; Synergy > 2× IC50 shift; No Effect; Antagonism; X: Not Tested) | Synergy or antagonism of second agent with tazemetostat (IC50 shift of second agent) (JH)S-4): C (key: B: Synergy > 4× IC50 shift; Synergy > 2× IC50 shift; No Effect; Antagonism; X: Not Tested); Synergy or antagonism of second agent with tazemetostat (IC50 shift of second agent) (OAW42): B (key: B: Synergy > 4× IC50 shift; Synergy > 2× IC50 shift; No Effect; Antagonism; X: Not Tested); Synergy or antagonism of second agent with tazemetostat (IC50 shift of second agent) (HCC1187): C (Synergy > 2× IC50 shift); Synergy or antagonism of second agent with tazemetostat (IC50 shift of second agent) (A2780): C (key: B: Synergy > 4× IC50 shift; Synergy > 2× IC50 shift; No Effect; Antagonism; X: Not Tested) |
